Earlier results, collected in patent US20050227998A1, “Compositions and methods of decreasing nicotine withdrawal” (priority 2004, published 2005).

System: monkeys

In the case of `CN1[C@@H]2C[C@@H](OC(=O)[C@H](CO)c3ccccc3)C[C@H]1[C@@H]1O[C@@H]12` [scopolamine, Scopolamine], the smoking patterns is given as “decreased”.
